In US4606911A, “Pharmaceutical composition for the prevention of dental caries” (Rohto Pharmaceutical Co. Ltd., priority 1984, dated 1986):
≈ marks a conversion by molar mass, not a printed value. Entries after “also recorded” stand apart in the source; their conditions may differ. Where two headings read alike, the source gives them in different places.

Assays:
Format in all cases: cell-based
[1] = tested on: Serratia marcescens IFO 12648; test: Antibacterial activity (MIC, growth in BHI medium); design: key to Antibacterial activity (growth): -: grow; ±: slightly grow; +: not grow
Method: (§1) To a test tube was charged 3.8 ml of Brain Heart Infusion (BHI) medium, and 100 μl of a sample solution containing oleanolic, ursolic or glycyrrhetic acid and 100 μl of pre-incubated culture of bacterium selected from those listed below were added thereto. The mixture was incubated at 37° C. and then allowed to stand over night. The extent of the growth of bacterium was observed after two or five days. The MIC value was determined for each sample and summarized in Table 2. |Serratia marcescens IFO 12648

Esherichia coli K12 = test: Antibacterial activity (MIC, growth in BHI medium); design: key to Antibacterial activity (growth): -: grow; ±: slightly grow; +: not grow
Method: as §1, with “days.” for “days. The MIC value was determined for each sample and summarized in Table 2. |Serratia marcescens IFO 12648”
Esherichia coli K12 (Gram negative)

[2] = tested on: Staphylococcus aureus 209P; test: Antibacterial activity (MIC, growth in BHI medium); design: key to Antibacterial activity (growth): -: grow; ±: slightly grow; +: not grow
Method: as §1, with “|Staphylococcus aureus […]” for “|Serratia marcescens IFO 12648”

[3] = tested on: Pseudomonas aeruginosa KM338; test: Antibacterial activity (MIC, growth in BHI medium); design: key to Antibacterial activity (growth): -: grow; ±: slightly grow; +: not grow
Method: as §1, with “|Pseudomonas aeruginosa KM338” for “|Serratia marcescens IFO 12648”

[4] = tested on: Bacillus megaterium QM B1551; test: Antibacterial activity (MIC, growth in BHI medium); design: key to Antibacterial activity (growth): -: grow; ±: slightly grow; +: not grow
Method: as §1, with “|Bacillus megaterium QM B1551” for “|Serratia marcescens IFO 12648”

[5] = tested on: Streptococcus salivarius ATCC 9222; test: Antibacterial activity (MIC, growth in BHI medium); design: key to Antibacterial activity (growth): -: grow; ±: slightly grow; +: not grow
Method: as §1, with “|Streptococcus salivarius ATCC 9222” for “|Serratia marcescens IFO 12648”

[6] = tested on: Streptococcus mutans OMZ 176; test: Antibacterial activity (MIC, growth in BHI medium); design: key to Antibacterial activity (growth): -: grow; ±: slightly grow; +: not grow
Method: as §1, with “days.” for “days. The MIC value was determined for each sample and summarized in Table 2. |Serratia marcescens IFO 12648”
Streptococcus mutans OMZ 176

[7] = tested on: S. mutans OMZ 176 (serotype d); test: microbe, parasite or virus in culture; details: for inhibition at 10 µg/mL / inhibition at 20 µg/mL / inhibition at 30 µg/mL / inhibition at 50 µg/mL / inhibition at 100 µg/mL: Streptococcus mutans, read-out: Adherence-inhibiting activity (AIP); for adherence-inhibiting activity (in words): text statement
Method: The adherence-inhibiting activity of the triterpenes of the formula (I) was measured using an inner wall of a test tube in place of the surface of a tooth.
To 2.9 ml of BHI medium containing 5% sucrose in a test tube (i) are added 30 μl of a sample solution prepared by dissolving a compound of: the formula (I) in H2 O or dimethylsulfoxide (DMSO) and 100 μl of culture medium containing S. mutans OMZ 176 (serotype d) which was preincuvated at 37° C. for 24 hours in BHI medium, and the mixture is incubated at 37° C. for 20 hours, with the test tube being maintained at a slant of 30°. The test tube is revolved gently two or three times and the supernatant is transferred to another test tube (ii). To the first test tube (i) is added 3 ml of 50 mM phosphate buffer (pH 7.5), and the test tube is gently revolved two or three times. The resultant supernatant is transferred to the third test tube (iii). The test tubes (ii) and (iii) are each centrifuged and respective supernatants are discarded. To each of the test tubes (i), (ii) and (iii) is added 3 ml of 0.5M NaOH, and the test tubes are shaken to suspend bacterial cells. Absorbance of the resulting suspension is measured at 660 nm. The absorbances obtained with respect to the test tube (i), (ii) and (iii) are represented by Ab(i), Ab(ii) and Ab(iii), respectively. Ab(i) reflects the amount of the bacterial cells adhered to the wall of the test tube and Ab(ii) and Ab(iii) correspond to the amount of the bacterial cells not adhered to the wall.
The same procedure is repeated using 30 μl of distilled water or DMSO in place of the sample solution to obtain a control. The absorbance of the control is represented by Ab(Cont.).
Adherence percentage of bacteria is calculated from the following equation. [formula]
Adherence inhibitory percentage (AIP) is calculated using the adherence percentage according to the following equation. [formula]
The magnitude of adherence-inhibiting activity of each of the samples is shown, in Table 3, by the use of the following symbols: […]

CC1(C)[C@@H](O)CC[C@]2(C)[C@H]3C(=O)C=C4[C@@H]5C[C@@](C)(C(=O)O)CC[C@]5(C)CC[C@@]4(C)[C@]3(C)CC[C@@H]12 [Glycyrrhetic acid]
Antibacterial activity (growth) ([1]; 10 μg/ml): - | Antibacterial activity (growth) ([1]; 25 μg/ml): - | Antibacterial activity (growth) ([1]; 50 μg/ml): - | Antibacterial activity (growth) ([1]; 100 μg/ml): - | Antibacterial activity (growth) ([1]; 200 μg/ml): - | Antibacterial activity (growth) ([1]; 400 μg/ml): - | MIC ([1]; IFO12648, Serratia marcescens, BHI, 37° C., read-out: MIC (minimum inhibitory concentration)): > 400 µg/mL | antibacterial action on Serratia marcescens (in words) ([1]; text statement): remain unaffected | Antibacterial activity (growth) (Esherichia coli K12; 10 μg/ml): - | Antibacterial activity (growth) (Esherichia coli K12; 25 μg/ml): - | Antibacterial activity (growth) (Esherichia coli K12; 50 μg/ml): - | Antibacterial activity (growth) (Esherichia coli K12; 100 μg/ml): - | Antibacterial activity (growth) (Esherichia coli K12; 200 μg/ml): - | Antibacterial activity (growth) (Esherichia coli K12; 400 μg/ml): - | MIC (Esherichia coli K12; Esherichia coli, BHI, 37° C., read-out: MIC (minimum inhibitory concentration)): > 400 µg/mL | antibacterial action on Escherichia coli (in words) (Esherichia coli K12; text statement): remain unaffected | Antibacterial activity (growth) ([2]; 10 μg/ml): - | Antibacterial activity (growth) ([2]; 25 μg/ml): - | Antibacterial activity (growth) ([2]; 50 μg/ml): - | Antibacterial activity (growth) ([2]; 100 μg/ml): - | Antibacterial activity (growth) ([2]; 200 μg/ml): - | Antibacterial activity (growth) ([2]; 400 μg/ml): - | MIC ([2]; 209P, Staphylococcus aureus, BHI, 37° C., read-out: MIC (minimum inhibitory concentration)): 400 µg/mL (≈ 850 µM) | antibacterial action on Staphylococcus aureus (in words) ([2]; text statement): remain unaffected | Antibacterial activity (growth) ([3]; 10 μg/ml): - | Antibacterial activity (growth) ([3]; 25 μg/ml): - | Antibacterial activity (growth) ([3]; 50 μg/ml): - | Antibacterial activity (growth) ([3]; 100 μg/ml): - | Antibacterial activity (growth) ([3]; 200 μg/ml): - | Antibacterial activity (growth) ([3]; 400 μg/ml): - | MIC ([3]; KM338, Pseudomonas aeruginosa, BHI, 37° C., read-out: MIC (minimum inhibitory concentration)): > 400 µg/mL | antibacterial action on Pseudomonas aeruginosa (in words) ([3]; text statement): remain unaffected | Antibacterial activity (growth) ([4]; 10 μg/ml): - | Antibacterial activity (growth) ([4]; 25 μg/ml): + | Antibacterial activity (growth) ([4]; 50 μg/ml): + | Antibacterial activity (growth) ([4]; 100 μg/ml): + | Antibacterial activity (growth) ([4]; 200 μg/ml): + | Antibacterial activity (growth) ([4]; 400 μg/ml): + | MIC ([4]; Priestia megaterium, QMB1551, Bacillus megaterium, BHI, 37° C., read-out: MIC (minimum inhibitory concentration)): 25 µg/mL (≈ 53.1 µM) | antibacterial activity on Bacillus megaterium (in words) ([4]; text statement): exhibits a selective antibacterial activity on S. mutans and Bacillus megaterium | Antibacterial activity (growth) ([5]; 10 μg/ml): - | Antibacterial activity (growth) ([5]; 25 μg/ml): - | Antibacterial activity (growth) ([5]; 50 μg/ml): - | Antibacterial activity (growth) ([5]; 100 μg/ml): - | Antibacterial activity (growth) ([5]; 200 μg/ml): - | Antibacterial activity (growth) ([5]; 400 μg/ml): ± | MIC ([5]; ATCC9222, Streptococcus salivarius, BHI, 37° C., read-out: MIC (minimum inhibitory concentration)): > 400 µg/mL | antibacterial action on Streptococcus salivarius (in words) ([5]; text statement): remain unaffected | antibacterial activity to S. mutans (in words) [6]: exhibits a selective antibacterial activity on S. mutans and Bacillus megaterium; also recorded: very strong and selective antibacterial activity to S. mutans | Antibacterial activity (growth) ([6]; 10 μg/ml): + | Antibacterial activity (growth) ([6]; 25 μg/ml): + | Antibacterial activity (growth) ([6]; 50 μg/ml): + | Antibacterial activity (growth) ([6]; 100 μg/ml): + | Antibacterial activity (growth) ([6]; 200 μg/ml): + | Antibacterial activity (growth) ([6]; 400 μg/ml): + | MIC (minimum inhibitory concentration) ([6]; Streptococcus mutans OMZ 176, BHI, 37° C.): lower than 10 μg/ml | MIC ([6]; Streptococcus mutans, OMZ176, Streptococcus mutans OMZ 176, BHI, 37° C., read-out: MIC (minimum inhibitory concentration)): 10 µg/mL (≈ 21.2 µM)

CC1(C)[C@@H](O[C@H]2O[C@H](C(=O)O)[C@@H](O)[C@H](O)[C@H]2O[C@@H]2O[C@H](C(=O)O)[C@@H](O)[C@H](O)[C@H]2O)CC[C@]2(C)[C@H]3C(=O)C=C4[C@@H]5C[C@@](C)(C(=O)O)CC[C@]5(C)CC[C@@]4(C)[C@]3(C)CC[C@@H]12 [Glycyrrizic acid, reference compound]
inhibition at 10 µg/mL [7]: < 25% | inhibition at 20 µg/mL [7]: < 25% | inhibition at 30 µg/mL [7]: < 25% | inhibition at 50 µg/mL [7]: < 25% | inhibition at 100 µg/mL [7]: < 25% | adherence-inhibiting activity (in words) [7]: could not be observed | antibacterial activity to S. mutans (in words) ([6]; text statement): could not be observed

COC(=O)[C@]12CCC(C)(C)C[C@H]1C1=CC[C@@H]3[C@@]4(C)CC[C@H](O)C(C)(C)[C@@H]4CC[C@@]3(C)[C@]1(C)CC2 [Methyl oleanolate (17-position) (a), Methyl oleanolate, reference compound]
inhibition at 10 µg/mL [7]: < 25% | inhibition at 20 µg/mL [7]: < 25% | inhibition at 30 µg/mL [7]: < 25% | inhibition at 50 µg/mL [7]: < 25% | inhibition at 100 µg/mL [7]: < 25%

CC1(C)CC[C@]2(CO)CC[C@]3(C)C(=CC[C@@H]4[C@@]5(C)CC[C@H](O)C(C)(C)[C@@H]5CC[C@]43C)[C@@H]2C1 [Oleanolic acid (acid reductant) (b), reference compound]
inhibition at 10 µg/mL [7]: < 25% | inhibition at 20 µg/mL [7]: < 25% | inhibition at 30 µg/mL [7]: < 25% | inhibition at 50 µg/mL [7]: < 25% | inhibition at 100 µg/mL [7]: < 25%

CC1(C)CC[C@]2(C)CC=C3[C@]4(C)CC[C@H]5C(C)(C)[C@@H](O)CC[C@]5(C)[C@H]4CC[C@@]3(C)[C@@H]2C1 [Taraxerol, reference compound]
inhibition at 10 µg/mL [7]: < 25% | inhibition at 20 µg/mL [7]: < 25% | inhibition at 30 µg/mL [7]: < 25% | inhibition at 50 µg/mL [7]: < 25% | inhibition at 100 µg/mL [7]: < 25% | adherence-inhibiting activity (in words) [7]: could not be observed | antibacterial activity to S. mutans (in words) ([6]; text statement): could not be observed

CC(=O)O[C@H]1CC[C@]2(C)[C@H]3CC=C4[C@@H]5CC(C)(C)CC[C@]5(C(=O)O)CC[C@@]4(C)[C@]3(C)CC[C@H]2C1(C)C [reference compound]
inhibition at 10 µg/mL [7]: < 25% | inhibition at 20 µg/mL [7]: < 25% | inhibition at 30 µg/mL [7]: < 25% | inhibition at 50 µg/mL [7]: 25 to 50% | inhibition at 100 µg/mL [7]: 25 to 50%

Chikusetsusaponin V [Chikusetsusaponin V (e), reference compound]
adherence-inhibiting activity (in words) [7]: could not be observed | antibacterial activity to S. mutans (in words) ([6]; text statement): could not be observed
